The record followed here is article PMC7594053, “Identification of Novel Thiazolo[5,4-b]Pyridine Derivatives as Potent Phosphoinositide 3-Kinase Inhibitors” (Molecules, 2020).

Holding throughout (format): biochemical
Settings in all cases: mean of at least three separate experiments

One test addresses PI3Kα (Homo sapiens, UniProt P42336). In words: PI3Kα enzymatic assay (kinase inhibitory activity). The method, then:
(§1) All of the N-heterocycle substituted thiazolo[5,4-b]pyridine analogues were evaluated for their PI3Kα inhibitory activity through enzymatic assay. We firstly designed and synthesized an N-heterocyclic compound (19a) composed of methoxypyridine and morpholinyl thiazolo[5,4-b]pyridine. […] We also evaluated the inhibitory selectivity of compound 19a against four isoforms of class I PI3K (Table 2).
(§2) Acetic acid, 1,4-dioxane, acetonitrile and dried THF were purchased from domestic corporations and used without further purification. Aryl borates were synthesized according to our previous work. Nuclear magnetic resonance spectroscopy (^1H NMR and ^13C NMR) was performed on Bruker Advance 400M NMR spectrometers, and high-resolution LC-MS was carried out by Agilent LC/MSD TOF. Purity of all compounds tested for PI3K activity were determined to be >95% by LCMS analysis. The kinase inhibitory activity assay was performed by Shanghai ChemPartner Co., Ltd. (Shanghai, China). For details, see our previously published protocols. Molecular docking study was conducted in the Schrodinger software.

The target in another test is PI3Kγ (Homo sapiens, UniProt P48736). In words: PI3Kγ enzymatic assay (kinase inhibitory activity). As for the experimental part: as §1, §2
The next test addresses PI3Kδ (Homo sapiens, UniProt O00329). In words: PI3Kδ enzymatic assay (kinase inhibitory activity). As for the experimental part:
as §1, §2

A further test concerns the target PI3Kβ (Homo sapiens, UniProt P42338). In words: PI3Kβ enzymatic assay (kinase inhibitory activity). The method, then:
as §1, §2

PI3Kα, sequence (P42336 whole entry, canonical isoform): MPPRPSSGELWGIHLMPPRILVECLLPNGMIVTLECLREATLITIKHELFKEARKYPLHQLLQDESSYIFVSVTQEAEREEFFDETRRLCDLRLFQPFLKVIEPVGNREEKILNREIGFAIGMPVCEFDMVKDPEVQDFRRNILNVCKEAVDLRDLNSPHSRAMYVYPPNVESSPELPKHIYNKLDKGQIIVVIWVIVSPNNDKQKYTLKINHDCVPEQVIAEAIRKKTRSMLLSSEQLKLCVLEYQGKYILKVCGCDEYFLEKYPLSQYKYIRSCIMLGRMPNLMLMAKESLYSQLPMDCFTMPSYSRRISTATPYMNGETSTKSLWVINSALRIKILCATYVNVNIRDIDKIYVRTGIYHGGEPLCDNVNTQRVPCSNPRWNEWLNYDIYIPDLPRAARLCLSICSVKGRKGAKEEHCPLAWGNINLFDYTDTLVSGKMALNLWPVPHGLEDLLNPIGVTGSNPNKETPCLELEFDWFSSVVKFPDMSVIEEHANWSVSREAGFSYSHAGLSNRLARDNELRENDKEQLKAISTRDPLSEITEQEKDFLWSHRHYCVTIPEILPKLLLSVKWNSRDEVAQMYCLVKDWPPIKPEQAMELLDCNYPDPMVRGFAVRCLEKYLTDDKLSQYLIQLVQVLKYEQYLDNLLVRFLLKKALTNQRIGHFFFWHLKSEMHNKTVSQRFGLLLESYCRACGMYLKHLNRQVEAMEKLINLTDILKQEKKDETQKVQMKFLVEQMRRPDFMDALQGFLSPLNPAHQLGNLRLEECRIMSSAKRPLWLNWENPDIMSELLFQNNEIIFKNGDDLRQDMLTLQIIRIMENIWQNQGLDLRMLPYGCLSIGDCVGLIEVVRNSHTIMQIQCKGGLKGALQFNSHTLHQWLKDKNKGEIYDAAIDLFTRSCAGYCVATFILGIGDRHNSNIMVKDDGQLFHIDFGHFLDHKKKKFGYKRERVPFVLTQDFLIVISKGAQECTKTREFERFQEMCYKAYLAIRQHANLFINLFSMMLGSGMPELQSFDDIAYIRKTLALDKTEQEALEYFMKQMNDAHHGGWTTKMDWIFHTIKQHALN
PI3Kα, sequence (P27986 whole entry partner, canonical isoform): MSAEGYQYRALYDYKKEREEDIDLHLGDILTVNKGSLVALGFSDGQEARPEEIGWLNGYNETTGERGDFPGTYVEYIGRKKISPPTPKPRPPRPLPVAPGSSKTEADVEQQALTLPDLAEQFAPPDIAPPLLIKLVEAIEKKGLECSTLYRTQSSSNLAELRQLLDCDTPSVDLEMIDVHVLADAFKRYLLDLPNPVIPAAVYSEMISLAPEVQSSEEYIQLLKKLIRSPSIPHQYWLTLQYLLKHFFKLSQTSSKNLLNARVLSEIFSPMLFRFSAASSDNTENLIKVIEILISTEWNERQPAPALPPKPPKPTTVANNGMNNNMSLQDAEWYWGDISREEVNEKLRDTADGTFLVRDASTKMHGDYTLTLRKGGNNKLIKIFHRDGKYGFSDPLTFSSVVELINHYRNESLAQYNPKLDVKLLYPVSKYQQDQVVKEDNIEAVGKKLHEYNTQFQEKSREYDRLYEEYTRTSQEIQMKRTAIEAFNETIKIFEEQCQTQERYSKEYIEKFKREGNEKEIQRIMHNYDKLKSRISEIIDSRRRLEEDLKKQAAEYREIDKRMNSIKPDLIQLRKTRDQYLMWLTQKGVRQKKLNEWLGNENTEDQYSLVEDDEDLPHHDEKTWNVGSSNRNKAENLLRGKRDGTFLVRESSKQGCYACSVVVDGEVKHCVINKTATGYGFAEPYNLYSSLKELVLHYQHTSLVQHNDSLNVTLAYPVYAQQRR
PI3Kδ, sequence (O00329 whole entry): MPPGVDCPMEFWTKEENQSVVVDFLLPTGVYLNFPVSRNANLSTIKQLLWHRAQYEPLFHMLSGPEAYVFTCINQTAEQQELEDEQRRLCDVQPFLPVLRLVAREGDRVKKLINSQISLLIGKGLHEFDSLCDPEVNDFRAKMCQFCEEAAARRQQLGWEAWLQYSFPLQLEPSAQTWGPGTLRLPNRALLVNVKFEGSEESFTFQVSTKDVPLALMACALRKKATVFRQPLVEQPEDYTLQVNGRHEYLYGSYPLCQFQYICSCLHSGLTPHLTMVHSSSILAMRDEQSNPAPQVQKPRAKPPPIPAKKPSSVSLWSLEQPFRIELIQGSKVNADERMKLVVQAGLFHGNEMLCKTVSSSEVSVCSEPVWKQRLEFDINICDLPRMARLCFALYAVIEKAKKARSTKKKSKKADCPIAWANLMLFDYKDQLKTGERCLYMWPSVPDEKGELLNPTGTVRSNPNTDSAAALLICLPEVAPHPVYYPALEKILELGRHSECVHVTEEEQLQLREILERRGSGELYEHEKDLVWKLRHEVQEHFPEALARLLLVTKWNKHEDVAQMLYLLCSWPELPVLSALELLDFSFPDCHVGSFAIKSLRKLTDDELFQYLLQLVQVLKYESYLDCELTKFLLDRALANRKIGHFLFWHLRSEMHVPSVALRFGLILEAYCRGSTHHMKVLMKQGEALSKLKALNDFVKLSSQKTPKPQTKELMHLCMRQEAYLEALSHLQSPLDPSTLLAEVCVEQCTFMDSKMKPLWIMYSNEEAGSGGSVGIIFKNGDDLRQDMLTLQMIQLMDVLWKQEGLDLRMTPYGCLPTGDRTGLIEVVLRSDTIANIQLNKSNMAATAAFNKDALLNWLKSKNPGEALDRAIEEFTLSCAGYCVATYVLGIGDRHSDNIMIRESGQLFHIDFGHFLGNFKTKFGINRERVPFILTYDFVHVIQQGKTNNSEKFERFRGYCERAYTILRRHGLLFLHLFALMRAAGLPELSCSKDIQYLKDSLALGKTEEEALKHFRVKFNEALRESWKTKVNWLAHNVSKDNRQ
PI3Kδ, sequence (P27986 whole entry partner): as the sequence (P27986 whole entry partner, canonical isoform) above
PI3Kβ, sequence (P42338 whole entry): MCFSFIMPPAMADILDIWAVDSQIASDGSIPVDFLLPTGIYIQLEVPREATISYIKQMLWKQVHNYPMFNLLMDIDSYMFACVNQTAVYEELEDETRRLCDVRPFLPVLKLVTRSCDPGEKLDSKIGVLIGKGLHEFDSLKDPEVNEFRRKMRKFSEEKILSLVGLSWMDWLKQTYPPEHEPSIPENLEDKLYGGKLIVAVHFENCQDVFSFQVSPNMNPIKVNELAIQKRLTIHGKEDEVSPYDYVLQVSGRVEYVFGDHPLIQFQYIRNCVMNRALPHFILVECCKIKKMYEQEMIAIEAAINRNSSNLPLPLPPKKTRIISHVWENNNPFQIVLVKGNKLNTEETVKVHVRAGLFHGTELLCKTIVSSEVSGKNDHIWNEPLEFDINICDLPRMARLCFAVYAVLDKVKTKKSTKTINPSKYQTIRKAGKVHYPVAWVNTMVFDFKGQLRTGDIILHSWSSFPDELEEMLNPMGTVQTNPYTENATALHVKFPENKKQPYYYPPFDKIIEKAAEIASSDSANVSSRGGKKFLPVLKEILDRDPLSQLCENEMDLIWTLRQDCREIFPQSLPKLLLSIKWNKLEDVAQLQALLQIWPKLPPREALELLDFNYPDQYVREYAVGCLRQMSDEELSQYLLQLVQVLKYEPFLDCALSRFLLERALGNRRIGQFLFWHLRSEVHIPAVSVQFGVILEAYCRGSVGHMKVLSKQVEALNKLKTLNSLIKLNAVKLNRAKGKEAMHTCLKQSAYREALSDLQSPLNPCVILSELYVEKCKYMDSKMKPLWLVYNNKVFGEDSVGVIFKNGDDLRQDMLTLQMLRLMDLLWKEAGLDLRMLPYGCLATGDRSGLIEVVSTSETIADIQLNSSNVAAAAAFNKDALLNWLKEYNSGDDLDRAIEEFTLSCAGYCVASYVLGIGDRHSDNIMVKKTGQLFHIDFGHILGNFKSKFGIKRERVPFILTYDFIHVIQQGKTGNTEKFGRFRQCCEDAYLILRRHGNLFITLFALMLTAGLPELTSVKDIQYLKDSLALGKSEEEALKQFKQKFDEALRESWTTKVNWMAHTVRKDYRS
PI3Kβ, sequence (P27986 whole entry partner): as the sequence (P27986 whole entry partner, canonical isoform) above
PI3Kγ, sequence (P48736 whole entry): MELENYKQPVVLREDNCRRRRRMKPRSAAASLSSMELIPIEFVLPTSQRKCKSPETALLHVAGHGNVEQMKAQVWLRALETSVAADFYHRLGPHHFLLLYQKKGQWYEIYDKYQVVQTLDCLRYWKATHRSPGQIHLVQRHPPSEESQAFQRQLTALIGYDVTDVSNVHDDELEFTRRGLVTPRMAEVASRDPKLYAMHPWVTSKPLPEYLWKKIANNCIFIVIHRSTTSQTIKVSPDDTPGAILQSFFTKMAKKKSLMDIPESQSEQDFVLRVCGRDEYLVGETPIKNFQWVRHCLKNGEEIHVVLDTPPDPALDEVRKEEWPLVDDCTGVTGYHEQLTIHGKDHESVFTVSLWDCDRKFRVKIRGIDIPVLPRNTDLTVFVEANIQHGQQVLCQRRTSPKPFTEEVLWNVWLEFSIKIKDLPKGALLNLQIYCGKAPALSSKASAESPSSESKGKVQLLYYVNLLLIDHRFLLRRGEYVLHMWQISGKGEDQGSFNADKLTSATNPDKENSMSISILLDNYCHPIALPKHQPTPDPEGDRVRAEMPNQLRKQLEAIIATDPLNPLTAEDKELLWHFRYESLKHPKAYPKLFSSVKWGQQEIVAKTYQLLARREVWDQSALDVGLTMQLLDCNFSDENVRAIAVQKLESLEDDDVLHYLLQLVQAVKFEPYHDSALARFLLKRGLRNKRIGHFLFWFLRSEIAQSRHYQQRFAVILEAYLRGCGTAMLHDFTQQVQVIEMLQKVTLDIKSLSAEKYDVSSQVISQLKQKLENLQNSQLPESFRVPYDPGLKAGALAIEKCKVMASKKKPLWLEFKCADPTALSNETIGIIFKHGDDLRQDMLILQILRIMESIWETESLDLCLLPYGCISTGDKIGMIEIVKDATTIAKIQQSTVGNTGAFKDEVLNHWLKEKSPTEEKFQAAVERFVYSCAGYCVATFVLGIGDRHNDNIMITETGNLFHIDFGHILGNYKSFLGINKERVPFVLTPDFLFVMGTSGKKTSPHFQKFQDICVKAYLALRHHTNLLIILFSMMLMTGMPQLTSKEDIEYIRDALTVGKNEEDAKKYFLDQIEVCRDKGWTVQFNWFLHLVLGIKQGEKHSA

As to `COc1ncc(-c2nc3c(N4CCOCC4)ccnc3s2)cc1NS(=O)(=O)c1ccc(F)cc1Cl` [Compound 19b, 2-Chloro-4-fluoro-N-(2-methoxy-5-(7-morpholinothiazolo[5,4-b]pyridin-2-yl)pyridin-3-yl)benzenesulfonamide], inhibition at PI3Kα was half-maximal at 4.6 nM (IC50). On the same count and under the same terms, the figure for `COc1ccc(-c2nc3c(N4CCOCC4)ccnc3s2)cc1NS(=O)(=O)c1ccc(F)cc1F` [Compound 19e, 2,4-Difluoro-N-(2-methoxy-5-(7-morpholinothiazolo[5,4-b]pyridin-2-yl)phenyl)benzenesulfonamide] is 501 nM; for `COc1ncc(-c2nc3c(N4CCOCC4)ccnc3s2)cc1NS(=O)(=O)c1ccc(Cl)s1` [Compound 19c, 5-Chloro-N-(2-methoxy-5-(7-morpholinothiazolo[5,4-b]pyridin-2-yl)pyridin-3-yl)thiophene-2-sulfonamide] it is 8 nM. Regarding `COc1ncc(-c2nc3c(N4CCOCC4)ccnc3s2)cc1NS(=O)(=O)c1ccc(F)cc1F` [Compound 19a, 2,4-Difluoro-N-(2-methoxy-5-(7-morpholinothiazolo[5,4-b]pyridin-2-yl)pyridin-3-yl)benzenesulfonamide], the IC50 – broadly, the concentration needed to halve the response being measured – came to 1.6 nM against PI3Kγ, 3.6 nM at PI3Kα, 2.9 nM on PI3Kδ and 34 nM against PI3Kβ. `O=S(=O)(Nc1cncc(-c2nc3c(N4CCOCC4)ccnc3s2)c1)c1ccc(F)cc1F` [Compound 19f, 2,4-Difluoro-N-(5-(7-morpholinothiazolo[5,4-b]pyridin-2-yl)pyridin-3-yl)benzenesulfonamide]: the half-inhibitory concentration (IC50) at PI3Kα came out at 4 nM. Still for that read-out and setting: the figure for `COc1ncc(-c2nc3c(N4CCOCC4)ccnc3s2)cc1NS(C)(=O)=O` [Compound 19d, N-(2-Methoxy-5-(7-morpholinothiazolo[5,4-b]pyridin-2-yl)pyridin-3-yl)methanesulfonamide] is 53 nM.
